From ChEMBL document CHEMBL1201862, “PubChem BioAssay data set” (2004)
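96-well plates; 48 h exposure; 5 concentrations. Endpoints by linear interpolation between flanking doses. Not reached: highest tested concentration assigned. GI50 = concentration required for 50% inhibition of growth.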 Calls of active or inactive are those of the source. No stated cut-off is given here; in the data, active = GI50 up to about 1.1 µM and inactive = higher.

What was measured:
Experiment in all cases: NCI anticancer screen, dose series, 48 h
SF-268 = system: SF-268
DU-145 = system: DU-145
T47D = system: T47D
IGROV-1 = system: IGROV-1
RPMI-8226 = system: RPMI-8226
Hs-578T = system: Hs-578T
OVCAR-8 = system: OVCAR-8
NCI-H23 = system: NCI-H23
SK-MEL-2 = system: SK-MEL-2
HCT-116 = system: HCT-116
MCF7 = system: MCF7
RXF 393 = system: RXF 393
NCI-H226 = system: NCI-H226
OVCAR-4 = system: OVCAR-4
EKVX = system: EKVX
BT-549 = system: BT-549
COLO 205 = system: COLO 205
CAKI-1 = system: CAKI-1
OVCAR-5 = system: OVCAR-5
SK-OV-3 = system: SK-OV-3

Measured: GI50

O=C(O)c1cccc(/[As]=[As]\c2cccc(C(=O)O)c2)c1 (stereo not drawn)
inactive: SF-268 29.3 µM | DU-145 86.5 µM | T47D 34.9 µM | IGROV-1 34.2 µM | RPMI-8226 23 µM | Hs-578T 33.8 µM | OVCAR-8 34.6 µM | NCI-H23 31 µM | SK-MEL-2 21.7 µM | HCT-116 36.9 µM | MCF7 32.9 µM | RXF 393 26.9 µM | NCI-H226 84.9 µM | OVCAR-4 51.9 µM | EKVX 59.8 µM | BT-549 70.6 µM | COLO 205 33 µM | CAKI-1 16.4 µM | OVCAR-5 24.5 µM

O=C(NNC(=S)Nc1ccc(Br)cc1)c1cc(-c2ccccc2)nc2ccccc12
inactive: SF-268 33.3 µM | DU-145 19.9 µM | T47D 17.1 µM | IGROV-1 37.8 µM | RPMI-8226 14.3 µM | Hs-578T 30.2 µM | OVCAR-8 23.1 µM | NCI-H23 23.6 µM | SK-MEL-2 20 µM | HCT-116 16.7 µM | MCF7 18.4 µM | RXF 393 18.4 µM | NCI-H226 24.3 µM | OVCAR-4 19.8 µM | SK-OV-3 25.2 µM | BT-549 24.5 µM | COLO 205 22.6 µM | CAKI-1 29.8 µM | OVCAR-5 24.9 µM

CN(C)c1ccc(/C=C(\NC(=O)c2ccccc2)C(=O)Nc2ccccc2C(=O)NN2C(=O)CSC2c2ccc(N(C)C)cc2)cc1 (stereo not drawn)
inactive: SF-268 > 100 µM | DU-145 > 100 µM | T47D > 100 µM | IGROV-1 > 100 µM | RPMI-8226 > 100 µM | Hs-578T > 100 µM | OVCAR-8 > 100 µM | NCI-H23 > 100 µM | SK-MEL-2 > 100 µM | HCT-116 > 100 µM | MCF7 > 100 µM | RXF 393 86.3 µM | NCI-H226 > 100 µM | SK-OV-3 > 100 µM | EKVX > 100 µM | BT-549 > 100 µM | COLO 205 > 100 µM | CAKI-1 > 100 µM | OVCAR-5 > 100 µM

CNC(=O)CNC(=O)C(Cc1ccc(NC(=O)CCCCC(C)=O)cc1)NC(=O)C(CCC(=O)OCc1ccccc1)NC(=O)OC(C)(C)C (stereo not drawn)
inactive: SF-268 > 100 µM | DU-145 > 100 µM | T47D > 100 µM | IGROV-1 > 100 µM | RPMI-8226 > 100 µM | Hs-578T > 100 µM | OVCAR-8 > 100 µM | NCI-H23 > 100 µM | HCT-116 > 100 µM | MCF7 > 100 µM | RXF 393 > 100 µM | NCI-H226 > 100 µM | OVCAR-4 > 100 µM | SK-OV-3 > 100 µM | EKVX > 100 µM | BT-549 > 100 µM | COLO 205 > 100 µM | CAKI-1 > 100 µM | OVCAR-5 > 100 µM

Cc1ccc(C2=Nc3cc(C)c(Cl)cc3S(=O)(=O)NN2)cc1
inactive: SF-268 82.6 µM | DU-145 > 100 µM | T47D 54 µM | IGROV-1 > 100 µM | RPMI-8226 > 100 µM | Hs-578T > 100 µM | OVCAR-8 > 100 µM | NCI-H23 > 100 µM | HCT-116 > 100 µM | MCF7 > 100 µM | RXF 393 72.1 µM | NCI-H226 > 100 µM | OVCAR-4 77.4 µM | SK-OV-3 > 100 µM | EKVX > 100 µM | BT-549 > 100 µM | COLO 205 > 100 µM | CAKI-1 27.9 µM

Cc1ccc(S(=O)(=O)N(CCN2C(=O)c3ccccc3C2=O)c2cc3c4c(c2)Oc2cc(N(CCN5C(=O)c6ccccc6C5=O)S(=O)(=O)c5ccc(C)cc5)cc5c2C4(C)c2c(cc(N(CCN4C(=O)c6ccccc6C4=O)S(=O)(=O)c4ccc(C)cc4)cc2O5)O3)cc1
inactive: SF-268 > 100 µM | DU-145 > 100 µM | T47D > 100 µM | IGROV-1 57.3 µM | RPMI-8226 > 100 µM | Hs-578T > 100 µM | OVCAR-8 > 100 µM | SK-MEL-2 > 100 µM | HCT-116 > 100 µM | MCF7 > 100 µM | RXF 393 > 100 µM | NCI-H226 > 100 µM | OVCAR-4 > 100 µM | SK-OV-3 > 100 µM | EKVX > 100 µM | BT-549 > 100 µM | COLO 205 > 100 µM | CAKI-1 > 100 µM | OVCAR-5 > 100 µM

O=c1cc(NNc2cccc(Cl)c2)[nH]c(=O)[nH]1
inactive: SF-268 > 100 µM | DU-145 72.3 µM | T47D > 100 µM | IGROV-1 > 100 µM | RPMI-8226 20.3 µM | Hs-578T > 100 µM | NCI-H23 59.8 µM | SK-MEL-2 42.4 µM | HCT-116 17.9 µM | MCF7 1.88 µM | RXF 393 > 100 µM | NCI-H226 > 100 µM | OVCAR-4 > 100 µM | SK-OV-3 > 100 µM | BT-549 > 100 µM | COLO 205 42.1 µM | CAKI-1 19.1 µM | OVCAR-5 77.4 µM

Cc1c(C2CCSc3ccccc3N2)sc2ccccc12 (stereo not drawn)
inactive: SF-268 > 100 µM | DU-145 > 100 µM | T47D 87.9 µM | IGROV-1 > 100 µM | RPMI-8226 > 100 µM | Hs-578T > 100 µM | OVCAR-8 > 100 µM | NCI-H23 > 100 µM | SK-MEL-2 > 100 µM | HCT-116 62.1 µM | MCF7 62.2 µM | RXF 393 86.5 µM | NCI-H226 > 100 µM | OVCAR-4 62.7 µM | SK-OV-3 > 100 µM | EKVX 30.9 µM | BT-549 > 100 µM | COLO 205 > 100 µM | CAKI-1 52.5 µM

O=C(c1ccc2ccccc2c1)N(Cc1cccnc1)C(=S)N(Cc1cccnc1)C(=O)c1ccc2ccccc2c1
inactive: SF-268 29.2 µM | DU-145 27 µM | T47D 26.3 µM | RPMI-8226 32.9 µM | Hs-578T 49.9 µM | OVCAR-8 25.7 µM | NCI-H23 23.1 µM | SK-MEL-2 25.6 µM | HCT-116 35.7 µM | MCF7 32.7 µM | RXF 393 19.3 µM | NCI-H226 61.2 µM | OVCAR-4 20.7 µM | SK-OV-3 46.3 µM | EKVX 22.8 µM | BT-549 17 µM | COLO 205 29.2 µM | CAKI-1 22.2 µM | OVCAR-5 55 µM

C[C@@H]1CC(=O)[C@@]2(C)[C@](O)(CCC3O[C@]32C)[C@@]12CC(c1ccoc1)OC2=O (stereo partly drawn)
inactive: DU-145 > 100 µM | T47D > 100 µM | IGROV-1 > 100 µM | RPMI-8226 33.3 µM | Hs-578T 33.8 µM | OVCAR-8 > 100 µM | NCI-H23 > 100 µM | SK-MEL-2 > 100 µM | HCT-116 34.5 µM | MCF7 84.5 µM | RXF 393 31.8 µM | NCI-H226 > 100 µM | OVCAR-4 > 100 µM | SK-OV-3 > 100 µM | EKVX > 100 µM | BT-549 68.2 µM | COLO 205 65 µM | CAKI-1 91 µM | OVCAR-5 > 100 µM
